# Measured values published in PMC11506018, “Targeting PARP-1 and DNA Damage Response Defects in Colorectal Cancer Chemotherapy with Established and Novel PARP Inhibitors” (Cancers, 2024).
# Where two headings read alike, the source gives them in different places.
# How the values were obtained:
# [1] = tested on: Caco-2 cells; test: cell viability, resazurin reduction assay, Caco-2; details: for cell viability, monotreatment: up to 50 µM; for cytotoxicity of IT in combination with PARPi: not statistically significant; for IC50: read-out: IC50-values Caco-2
# [2] = tested on: human colonic epithelial cells (HCEC); test: cell viability, resazurin reduction assay, HCEC; details: 72 h; for IC50: read-out: IC50-values HCEC; for cell viability, monotreatment: nonmalignant HCEC, up to 50 µM
# [3] = tested on: DLD-1 ATRs/s cells; test: cell viability, resazurin reduction assay, DLD-1 ATRs/s; details: for IC50: read-out: IC50-values DLD-1 ATRs/s; for cell viability, monotreatment: DLD-1 ATRs/s
# [4] = tested on: HCT116 BRCA2−/− cells; test: cell viability, resazurin reduction assay, HCT116 BRCA2-/-; details: for IC50: read-out: IC50-values HCT116 BRCA2−/−
# [5] = tested on: PARP-2; parameters: method as in PMID 34327724; details: cited from earlier work
# [6] = tested on: H2O2-induced PAR formation (PARP-1 activity) in HCT116 cells; test: PAR immunofluorescence: H2O2-induced PAR formation in HCT116 cells; assay type: cell-based, human; details: for IC50: Homo sapiens, HCT-116, 2 h pretreatment, 1 mM H2O2 5 min
# Experimental: Cells lines were re-authenticated by p53, PARP-1, ATR, and BRCA2 immunoblotting, by their characteristic differential response to genotoxic agents and their typical cell morphology. HCT116, HCT116 BRCA2^−/−, DLD-1 ATR^+/+ and DLD-1 ATR^s/s cells were maintained in DMEM, whereas HCT116 PARP-1^+/+ and HCT116 PARP-1^−/− cells were maintained in RPMI1640 containing 10% FCS and 1% penicillin/streptomycin in a humidified atmosphere at 37 °C and 5% CO2. Caco-2 cells were cultured in MEM with 10% FCS, 1% penicillin/streptomycin, and nonessential amino acids. […] The media and supplements were obtained from PAN-Biotech (Aidenbach, Germany) and Thermo Fisher Scientific (Darmstadt, Germany). Cell culture was frequently tested for contamination with mycoplasma by PCR using the Venor® GeM Classic kit (Minerva Biolabs, Berlin, Germany) and immunofluorescence microscopy with nuclear staining. […] Cells were exposed for 1 h for the quantification of PARP-1 trapping or 2 h for assessing the inhibitory potential by confocal fluorescence microscopy. […] If the PARPi treatment was conducted in combination with cytostatic drugs for 24 h (γH2AX Western blot analysis) or 72 h (cytotoxicity testing), the PARPi was added 2 h prior.
# The activity of potential PARP inhibitors was tested in a cell model using immunofluorescence-based detection of PAR essentially as reported previously. HCT116 cells were seeded in Ibidi 12-well chamber slides and cultivated until they reached 70% confluence. Induction of PARylation was achieved by adding 1 mM H2O2 in PBS/1 mM MgCl2 for 5 min at 37 °C. Cells were washed with PBS/1 mM MgCl2 and fixed by adding 4% PFA at RT. After 20 min, cells were washed with PBS/100 mM glycine for 1 min and permeabilized with PBS/0.3% Triton X-100 for 3 min. Blocking of the cells was conducted by adding PBS/0.05% Tween containing 5% powdered milk for 1 h at RT. […] Cells were washed and an Alexa488-coupled secondary antibody was added for 1 h at RT. The slides were mounted with VectaShield containing DAPI and analyzed by confocal microscopy using a Zeiss Axio Observer 7 microscope (Oberkochen, Germany) equipped with a 63× oil objective (Plan-Apochromat 63×/1.40 DIC M27) and a LSM900 confocal laser scanner (Zeiss, Oberkochen, Germany). Images were analyzed using Zeiss Zen software version 3.4 and ImageJ v1.53t (NIH, Bethesda, MD, USA). Briefly, nuclei were identified based on the DAPI signal and marked as regions of interest (ROI). Subsequently, the mean PAR signal in the identified ROI was quantified in each image and exported for further analysis. For the individual experiments, the mean PAR intensity was averaged for each treatment group and the control was set to 100%. Only images with a minimum of 4 cells were included in the analysis and at least 5 images were assessed per treatment group. The experiments were conducted in at least 3 biological replicates. To derive IC50 concentrations, relative PAR levels of the experiments were transferred to GraphPad Prism 9.0 Software (GraphPad Software Inc., Boston, MA, USA) for a nonlinear regression analysis applying a three-parameter model.
# [7] = tested on: DLD-1 WT cells; test: cell viability, resazurin reduction assay, DLD-1 WT; details: for IC50: read-out: IC50-values DLD-1 WT; for cell viability, monotreatment: DLD-1 WT
# [8] = tested on: P-glycoprotein; parameters: method as in PMID 24700236; details: efflux transporter; cited from earlier work
# [9] = tested on: HCT116 WT cells; test: cell viability, resazurin reduction assay, HCT116 WT; details: for IC50: Homo sapiens, HCT-116, 72 h, read-out: IC50-values HCT116 WT
# [10] = tested on: HCT116 PARP-1−/− cells; test: cell viability, resazurin reduction assay, HCT116 PARP-1-/-; details: for IC50: read-out: IC50-values HCT116 PARP1−/−
# [11] = target: T1, PARP-1 (Homo sapiens, UniProt P09874); test: chemiluminescence-based PARP-1 assay kit (recombinant enzyme); details: for IC50: IC50 PARP-1 screening assay kit
# T1 sequence (P09874 whole entry): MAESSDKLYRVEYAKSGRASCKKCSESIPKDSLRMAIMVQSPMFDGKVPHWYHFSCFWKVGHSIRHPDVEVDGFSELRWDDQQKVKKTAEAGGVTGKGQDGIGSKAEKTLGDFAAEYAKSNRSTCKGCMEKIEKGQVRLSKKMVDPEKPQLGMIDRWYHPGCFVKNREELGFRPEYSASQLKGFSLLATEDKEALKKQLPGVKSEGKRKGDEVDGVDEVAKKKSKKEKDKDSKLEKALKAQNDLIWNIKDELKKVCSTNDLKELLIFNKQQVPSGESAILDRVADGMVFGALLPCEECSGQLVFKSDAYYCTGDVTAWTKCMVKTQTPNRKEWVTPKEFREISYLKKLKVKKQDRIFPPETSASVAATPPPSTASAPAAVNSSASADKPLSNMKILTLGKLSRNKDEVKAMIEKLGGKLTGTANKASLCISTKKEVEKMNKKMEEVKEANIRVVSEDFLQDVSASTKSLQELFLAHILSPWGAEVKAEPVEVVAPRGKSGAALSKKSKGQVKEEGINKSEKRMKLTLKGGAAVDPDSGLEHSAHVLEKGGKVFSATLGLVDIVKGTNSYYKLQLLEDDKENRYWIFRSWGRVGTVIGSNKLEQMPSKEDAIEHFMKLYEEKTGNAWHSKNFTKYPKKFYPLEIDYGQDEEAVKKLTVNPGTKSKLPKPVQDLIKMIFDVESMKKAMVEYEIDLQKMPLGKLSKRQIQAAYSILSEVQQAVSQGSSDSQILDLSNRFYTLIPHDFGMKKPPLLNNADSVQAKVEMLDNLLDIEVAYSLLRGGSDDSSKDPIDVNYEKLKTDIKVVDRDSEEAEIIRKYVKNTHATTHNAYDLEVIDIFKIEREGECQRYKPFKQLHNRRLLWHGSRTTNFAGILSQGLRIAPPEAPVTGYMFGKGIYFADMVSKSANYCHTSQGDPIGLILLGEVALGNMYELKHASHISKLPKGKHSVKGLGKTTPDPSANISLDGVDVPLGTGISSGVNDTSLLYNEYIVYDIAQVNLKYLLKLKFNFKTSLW
# [12] = tested on: HCT116 PARP-1+/+ cells; test: cell viability, resazurin reduction assay, HCT116 PARP-1+/+; details: for IC50: read-out: IC50-values HCT116 PARP1+/+
# [13] = tested on: γH2AX formation in HCT116 BRCA2−/− cells; test: γH2AX Western blot in HCT116 BRCA2-/- cells; details: PARPi 50 µM, IT 0.25 µM 24 h
# [14] = target: T1, PARP-1; test: chromatin retention assay (PARP-1 trapping) in Caco-2 cells; details: Caco-2, MMS 1 mM 1 h with inhibitor
# [15] = tested on: γH2AX formation in HCT116 WT cells; test: γH2AX Western blot in HCT116 WT cells
# [16] = target: T1, PARP-1; test: chromatin retention assay (PARP-1 trapping) in HCT116 cells; details: HCT116, MMS 1 mM 1 h with inhibitor
smiles,measurement,setting,value
"O=C(c1cc(Cc2n[nH]c(=O)c3ccccc23)ccc1F)N1CCN(C(=O)C2CC2)CC1 [Olaparib, olaparib]","cell viability, monotreatment","[1]; Caco-2, 72 h",concentration-dependent reduction in Caco-2 viability
same,cytotoxicity of IT in combination with PARPi,"[1]; Caco-2, IT 10 µM",moderately increased the cytotoxicity of IT
same,IC50,"[1]; Homo sapiens, Caco-2, 72 h",> 50 µM
same,IC50,"[2]; Homo sapiens, HCEC",> 50 µM
same,"cell viability, monotreatment",[2],moderate decline in viability at the highest concentration
same,IC50,"[3]; Homo sapiens, DLD-1, 72 h",1.99 µM
same,"cytotoxicity, monotreatment","[4]; HCT116 BRCA2−/−, 72 h",High cytotoxicity in the low micromolar concentration range
same,IC50,"[4]; Homo sapiens, HCT-116, 72 h",0.46 µM
same,PAR formation,"[6]; 10 nM, positive control",completely blocked PAR formation
same,IC50,"[7]; Homo sapiens, DLD-1, 72 h",5.88 µM
same,P-glycoprotein substrate,[8],known substrates for P-glycoprotein
same,IC50,[9],8.4 µM
"C[C@]1(c2nc3c(C(N)=O)cccc3[nH]2)CCCN1 [Veliparib, veliparib]","cell viability, monotreatment","[1]; Caco-2, 72 h",little cytotoxicity at the highest test concentration
same,cytotoxicity of IT in combination with PARPi,"[1]; Caco-2, IT 10 µM",moderately increased the cytotoxicity of IT
same,IC50,"[1]; 72 h, RRA",> 50 µM
same,cell viability in combination with cytostatics,[10],did not sensitize to the anticancer drugs
same,"cell viability, monotreatment",[10],only mild cytotoxicity at the highest test concentration
same,IC50,[10],> 50 µM
same,"PARP-1 activity, % of the negative control",[11]; concentration of 5 nM,~50%
same,"cell viability, monotreatment",[2],no effect on HCEC
same,IC50,[2]; RRA,> 50 µM
same,"cell viability, monotreatment",[3]; 72 h,concentration-dependent decrease in viability in both cell models
same,IC50,"[3]; 72 h, RRA",> 50 µM
same,"cytotoxicity, monotreatment","[4]; HCT116 BRCA2−/−, 72 h",High cytotoxicity in the low micromolar concentration range
same,IC50,[4],7.45 µM
same,"cell viability, monotreatment",[7]; 72 h,concentration-dependent decrease in viability in both cell models
same,IC50,"[7]; 72 h, RRA",> 50 µM
same,P-glycoprotein substrate,[8],are not excreted
same,cell viability in combination with cytostatics,[12],significant decrease in cell viability compared to mono-treatment with cytostatics
same,"cell viability, monotreatment",[12],only mild cytotoxicity at the highest test concentration
same,IC50,[12],> 50 µM
"O=C(O)C1=NNC(=O)c2cccc3[nH]cc1c23 [X17613, 1-oxo-2,6-dihydro-1H-[1,2]diazepino [4,5,6-cd]indole-4-carboxylic acid]","γH2AX, co-treatment with IT",[13],further augmented in the presence of X17613
same,"cell viability, monotreatment","[1]; Caco-2, 72 h",little cytotoxicity at the highest test concentration
same,sensitization towards the anticancer drugs,"[1]; Caco-2, IT 10 µM, 5-FU 5 µM, OXA 1 µM",no sensitization towards the anticancer drugs
same,IC50,"[1]; Homo sapiens, Caco-2, 72 h",> 50 µM
same,"cell viability, monotreatment","[10]; HCT116 PARP-1−/−, 72 h, up to 50 µM",Neither X17613 nor X17618 decreased cell viability
same,cell viability in combination with cytostatics,"[10]; HCT116 PARP-1−/−, IT 0.5 µM, 5-FU 0.25 µM, OXA 0.5 µM, 72 h, PARPi added 2 h prior",did not affect the cytotoxicity of the anticancer drugs
same,IC50,"[10]; Homo sapiens, HCT-116, 72 h",> 50 µM
same,IC50,[11],0.041 µM
same,IC50,"[11]; recombinant PARP-1, 1 h RT, n = 2",0.0413 µM
same,PARP-1 trapping,[14],no effects were detected
same,"γH2AX, co-treatment with IT compared to IT mono-treatment","[15]; PARPi 50 µM 2 h prior, IT 0.25 µM 24 h",no significant further increase
same,"γH2AX, mono-treatment","[15]; X17613 50 µM or IT 0.25 µM, 24 h",No significant increase in γH2AX
same,IC50,"[2]; Homo sapiens, HCEC",> 50 µM
same,"cell viability, monotreatment",[2],no effect on HCEC
same,"cell viability, monotreatment",[3]; 72 h,no effects
same,IC50,"[3]; Homo sapiens, DLD-1, 72 h",> 50 µM
same,decrease of viability,"[4]; HCT116 BRCA2−/−, highest test concentration of 50 µM, 72 h",about 25%
same,cell viability in combination with chemotherapeutics,"[4]; HCT116 BRCA2−/−, IT 0.25 µM, 5-FU 0.1 µM, OXA 0.25 µM, 72 h",significant reduction in viability in HCT116 BRCA2^−/− cells in combination with the established cytostatic drug IT
same,IC50,"[4]; Homo sapiens, HCT-116, 72 h",> 50 µM
same,chromatin-bound PARP-1 (PARP-1 trapping),[16],No enrichment of PARP-1 in the chromatin fraction
same,IC50,"[6]; range over the three compounds, read-out: IC50 cellular PARP inhibition",0.005 to 0.035 µM
same,IC50,"[6]; unit inferred, read-out: IC50 PAR formation in HCT116 cells (Figure A3A)",0.036 µM
same,PAR signal,"[6]; concentration of 100 nM, H2O2-induced",significant decrease in the PAR signal
same,"cell viability, monotreatment",[7]; 72 h,no effects
same,IC50,"[7]; Homo sapiens, DLD-1, 72 h",> 50 µM
same,"cell viability, monotreatment","[12]; HCT116 PARP-1+/+, 72 h, up to 50 µM",Neither X17613 nor X17618 decreased cell viability
same,cell viability in combination with cytostatics,"[12]; HCT116 PARP-1+/+, IT 0.5 µM, 5-FU 0.25 µM, OXA 0.5 µM, 72 h, PARPi added 2 h prior",did not affect the cytotoxicity of the anticancer drugs
same,IC50,"[12]; Homo sapiens, HCT-116, 72 h",> 50 µM
same,"cell viability, monotreatment","[9]; HCT116 WT, 72 h, up to 50 µM",no impact
same,IC50,[9],> 50 µM
